“Also recorded” adds a separate entry of the source.
Tested on: patients diagnosed with herpes simplex virus (seizures associated with herpes simplex virus)
Assay: Open label, expanded-access program: seizure frequency recorded by caregivers in a diary, change relative to baseline
Format: in vivo, human
Parameters: Reduction in myoclonic seizures over the treatment period / Reduction in absence seizures over the treatment period / Reduction in focal seizures with impairment over the treatment period / Reduction in tonic-clonic seizures over the treatment period / Reduction in atonic seizures over the treatment period / Reduction in tonic seizures over the treatment period: concentration or dose not given beside the values; Seizure frequency, tonic-clonic / Seizure frequency, myoclonic / Seizure frequency, absence / Seizure frequency, focal with impairment / Seizure frequency, tonic / Seizure frequency, focal without impairment / Seizure frequency, atonic: unit not given here
Details: for Seizure frequency, focal with impairment: baseline 14.0; for Seizure frequency, absence: baseline 28.0; for Seizure frequency, myoclonic: baseline 59.0; for Seizure frequency, tonic: baseline 24.0
Protocol: Subjects were required to be on one or more AEDs at stable doses for a minimum of two weeks prior to baseline and to have stable vagus nerve stimulation (VNS) settings and ketogenic diet ratios for a minimum of four weeks prior to baseline.
Modifications were made to concomitant AEDs as per clinical indication.
Seizure frequency, intensity, and duration were recorded by caregivers in a diary during a baseline period of at least 28 days. Changes in seizure frequency relative to baseline were calculated after at least 2 weeks and at defined timepoints of treatment.
Patients may be defined as responders if they had more than 50% reduction in seizure frequency compared to baseline. The percent change in seizure frequency was calculated as follows: […]
The percent change of seizure frequency may be calculated for any time interval where seizure number has been recorded. For the purpose of this example the percent change of seizure frequency for the end of the treatment period was calculated as follows: […]

[1] = Patient 4, treated for 24 weeks, vs baseline
[2] = Patient 5, 4 weeks, CBD 20.0 mg/kg/day
[3] = Patient 5, 8 weeks, CBD 25.0 mg/kg/day
[4] = Patient 5, 12 weeks, CBD 25.0 mg/kg/day
[5] = Patient 5, 16 weeks, CBD 25.0 mg/kg/day
[6] = Patient 5, 24 weeks, CBD 30.0 mg/kg/day
[7] = Patient 5, 36 weeks, CBD 40.0 mg/kg/day
[8] = Patient 5, 60 weeks, CBD 50.0 mg/kg/day
[9] = Patient 5, 72 weeks, CBD 50.0 mg/kg/day
[10] = Patient 5, 84 weeks, CBD 30.0 mg/kg/day
[11] = Patient 5, 96 weeks, CBD 45.0 mg/kg/day
[12] = Patient 5, 108 weeks, CBD 45.0 mg/kg/day
[13] = Patient 5, 120 weeks, CBD 45.0 mg/kg/day
[14] = Patient 5, 132 weeks, CBD 45.0 mg/kg/day
[15] = Patient 5, 144 weeks, CBD 45.0 mg/kg/day
[16] = Patient 5, treated for 144 weeks, vs baseline

C=C(C)[C@@H]1CCC(C)=C[C@H]1c1c(O)cc(CCCCC)cc1O [CBD, cannabidiol]
Seizure frequency, tonic-clonic (Patient 4, 16 weeks, CBD 15.0 mg/kg/day, baseline 10.0): 0.7 | Seizure frequency, focal with impairment (Patient 4, 16 weeks, CBD 15.0 mg/kg/day): 2.7 | Seizure frequency, atonic (Patient 4, 16 weeks, CBD 15.0 mg/kg/day, baseline 20.0): 14.0 | Seizure frequency, tonic-clonic (Patient 4, 24 weeks, CBD 15.0 mg/kg/day, baseline 10.0): 10.0 | Seizure frequency, focal with impairment (Patient 4, 24 weeks, CBD 15.0 mg/kg/day): 3.0 | Seizure frequency, atonic (Patient 4, 24 weeks, CBD 15.0 mg/kg/day, baseline 20.0): 13.0 | Reduction in atonic seizures over the treatment period [1]: 35% | Reduction in focal seizures with impairment over the treatment period [1]: 78.6% | Seizure frequency, absence [2]: 45.0 | Seizure frequency, myoclonic [2]: 75.0 | Seizure frequency, tonic-clonic (Patient 5, 4 weeks, CBD 20.0 mg/kg/day, baseline 71.0): 75.0 | Seizure frequency, atonic (Patient 5, 4 weeks, CBD 20.0 mg/kg/day, baseline 748.0): 965.0 | Seizure frequency, absence [3]: 0.0 | Seizure frequency, myoclonic [3]: 60.0 | Seizure frequency, tonic-clonic (Patient 5, 8 weeks, CBD 25.0 mg/kg/day, baseline 71.0): 7.0 | Seizure frequency, atonic (Patient 5, 8 weeks, CBD 25.0 mg/kg/day, baseline 748.0): 8.0 | Seizure frequency, absence [4]: 0.0 | Seizure frequency, myoclonic [4]: 1.0 | Seizure frequency, tonic-clonic (Patient 5, 12 weeks, CBD 25.0 mg/kg/day, baseline 71.0): 4.0 | Seizure frequency, atonic (Patient 5, 12 weeks, CBD 25.0 mg/kg/day, baseline 748.0): 25.0 | Seizure frequency, absence [5]: 0.0 | Seizure frequency, myoclonic [5]: 0.0 | Seizure frequency, tonic-clonic (Patient 5, 16 weeks, CBD 25.0 mg/kg/day, baseline 71.0): 10.0 | Seizure frequency, atonic (Patient 5, 16 weeks, CBD 25.0 mg/kg/day, baseline 748.0): 53.0 | Seizure frequency, absence [6]: 0.0 | Seizure frequency, myoclonic [6]: 68.0 | Seizure frequency, tonic-clonic (Patient 5, 24 weeks, CBD 30.0 mg/kg/day, baseline 71.0): 40.0 | Seizure frequency, absence [7]: 0.0 | Seizure frequency, myoclonic [7]: 129.0 | Seizure frequency, tonic-clonic (Patient 5, 36 weeks, CBD 40.0 mg/kg/day, baseline 71.0): 76.0 | Seizure frequency, atonic (Patient 5, 36 weeks, CBD 40.0 mg/kg/day, baseline 748.0): 44.0 | Seizure frequency, absence [8]: 0.0 | Seizure frequency, myoclonic [8]: 184.0 | Seizure frequency, tonic-clonic (Patient 5, 60 weeks, CBD 50.0 mg/kg/day, baseline 71.0): 137.0 | Seizure frequency, atonic (Patient 5, 60 weeks, CBD 50.0 mg/kg/day, baseline 748.0): 45.0 | Seizure frequency, absence [9]: 3.0 | Seizure frequency, myoclonic [9]: 141.0 | Seizure frequency, tonic-clonic (Patient 5, 72 weeks, CBD 50.0 mg/kg/day, baseline 71.0): 130.0 | Seizure frequency, atonic (Patient 5, 72 weeks, CBD 50.0 mg/kg/day, baseline 748.0): 46.3 | Seizure frequency, absence [10]: 5.7 | Seizure frequency, myoclonic [10]: 81.0 | Seizure frequency, tonic-clonic (Patient 5, 84 weeks, CBD 30.0 mg/kg/day, baseline 71.0): 77.0 | Seizure frequency, atonic (Patient 5, 84 weeks, CBD 30.0 mg/kg/day, baseline 748.0): 39.3 | Seizure frequency, absence [11]: 8.0 | Seizure frequency, myoclonic [11]: 41.0 | Seizure frequency, tonic-clonic (Patient 5, 96 weeks, CBD 45.0 mg/kg/day, baseline 71.0): 72.0 | Seizure frequency, atonic (Patient 5, 96 weeks, CBD 45.0 mg/kg/day, baseline 748.0): 97.0 | Seizure frequency, absence [12]: 11.0 | Seizure frequency, myoclonic [12]: 64.0 | Seizure frequency, tonic-clonic (Patient 5, 108 weeks, CBD 45.0 mg/kg/day, baseline 71.0): 53.0 | Seizure frequency, atonic (Patient 5, 108 weeks, CBD 45.0 mg/kg/day, baseline 748.0): 92.0 | Seizure frequency, absence [13]: 11.3 | Seizure frequency, myoclonic [13]: 53.0 | Seizure frequency, tonic-clonic (Patient 5, 120 weeks, CBD 45.0 mg/kg/day, baseline 71.0): 44.3 | Seizure frequency, atonic (Patient 5, 120 weeks, CBD 45.0 mg/kg/day, baseline 748.0): 72.3 | Seizure frequency, absence [14]: 18.8 | Seizure frequency, myoclonic [14]: 66.4 | Seizure frequency, tonic-clonic (Patient 5, 132 weeks, CBD 45.0 mg/kg/day, baseline 71.0): 40.4 | Seizure frequency, atonic (Patient 5, 132 weeks, CBD 45.0 mg/kg/day, baseline 748.0): 128.0 | Seizure frequency, absence [15]: 49.6 | Seizure frequency, myoclonic [15]: 78.0 | Seizure frequency, tonic-clonic (Patient 5, 144 weeks, CBD 45.0 mg/kg/day, baseline 71.0): 18.0 | Seizure frequency, atonic (Patient 5, 144 weeks, CBD 45.0 mg/kg/day, baseline 748.0): 78.4 | Reduction in atonic seizures over the treatment period [16]: 89.5% | Reduction in tonic-clonic seizures over the treatment period [16]: 76.4% | Seizure frequency, tonic (Patient 6, 2 weeks, CBD 5.0 mg/kg/day): 40.0 | Seizure frequency, tonic (Patient 6, 4 weeks, CBD 10.0 mg/kg/day): 20.0 | Seizure frequency, tonic (Patient 6, 8 weeks, CBD 20.0 mg/kg/day): 32.0 | Seizure frequency, tonic (Patient 6, 12 weeks, CBD 25.0 mg/kg/day): 12.0 | Seizure frequency, tonic (Patient 6, 24 weeks, CBD 25.0 mg/kg/day): 15.2 | Seizure frequency, tonic (Patient 6, 36 weeks, CBD 25.0 mg/kg/day): 15.2 | Seizure frequency, tonic (Patient 6, 48 weeks, CBD 25.0 mg/kg/day): 18.0 | Seizure frequency, tonic (Patient 6, 60 weeks, CBD 25.0 mg/kg/day): 19.2 | Reduction in tonic seizures over the treatment period (Patient 6, treated for 60 weeks, vs baseline): 20% | Reductions in seizures over period of treatment, overall (all six patients, tonic, tonic-clonic, atonic, myoclonic, absence and focal seizures with impairment): 20-100% | Benefit in patients with focal seizures with impairment (in words) (patients 1 and 4): significant benefit | Effect on seizure frequency (in words) (six patients, tonic, tonic-clonic, atonic, myoclonic, absence and focal seizures with impairment): effective in reducing the frequency; also recorded: significantly reduce the number of seizures; also recorded: significant reduction

Reference: patent US20240033272A1, “USE OF C[…] THE TREATMENT OF SEIZURES ASSOCIATED WITH HERPES SIMPLEX VIRUS” (GW Research Limited, priority 2020, published 2024)
